The results in this text go back to PMC7957705 (Molecules, 2021).

Molecules are shown by their SMILES. Where a SMILES comes first, the peptide text is derived from it. Bridges are numbered along the chain shown (N, C = ends). Triazole bridges read from a SMILES are 1,4-linked. [ ]: non-standard residue; d: D form. The star is where a group is joined. Benzoyl(4-guanidino) = N=C(N)Nc1ccc(C(=O)*)cc1; Aha = [N-]=[N+]=NCC[C@H](N)C(=O)O; β3hV = CC(C)[C@H](N)CC(=O)O; Nle = CCCC[C@H](N)C(=O)O; Pra = C#CC[C@H](N)C(=O)O

The subject of data set [1] is high-fat diet-induced obese C57BL/6 mice. To be noted: mouse, in vivo. On the procedure: (§1) Male C57BL/6 mice at 4 weeks of age were provided by BioLasco Taiwan (under Charles River Laboratories Licensee). All animals were maintained in an environment with well-controlled temperature (20–24 °C) and humidity (30–70%) with 12 h light/dark cycles. Free access to standard lab diet (MFG (Oriental Yeast Co., Ltd., Japan)) and autoclaved tap water was granted. […]
(§2) The protocol was performed for all groups and all animals. […] Body weight was recorded three times weekly from Week 9. Food/water intake was recorded twice weekly from Week 9. […] At the termination in Week 20 (Day 141), the adipose tissue weight, including epididymal, mesenteric, inguinal, retroperitoneal, and brown fat, was measured after the animals were sacrificed. […] The following parameters were measured: (1) body weight three times weekly; (2) food/water intake twice weekly; (3) blood chemistry in Weeks 8 (before dosing), 16 and 20 including glucose, insulin, serum lipids (triglycerides (TG), total cholesterol (TC), AST, alanine aminotransferase (ALT), uric acid, creatinine, potassium and sodium through 16-h fasting animals; and finally, (4) total body fat (including visceral and subcutaneous fat) in Week 20.

In data set [2] the test system is fa/fa rats. Nature of the data set: Genetic model of obesity (fa/fa rats). It is filed as in vivo, rat. Conditions: data not shown.
The target of data set [3] is T1, human MCH-R1 (Homo sapiens, UniProt Q99705).
T1 construct: expressed in transfected cells
T1 sequence (Q99705 whole entry): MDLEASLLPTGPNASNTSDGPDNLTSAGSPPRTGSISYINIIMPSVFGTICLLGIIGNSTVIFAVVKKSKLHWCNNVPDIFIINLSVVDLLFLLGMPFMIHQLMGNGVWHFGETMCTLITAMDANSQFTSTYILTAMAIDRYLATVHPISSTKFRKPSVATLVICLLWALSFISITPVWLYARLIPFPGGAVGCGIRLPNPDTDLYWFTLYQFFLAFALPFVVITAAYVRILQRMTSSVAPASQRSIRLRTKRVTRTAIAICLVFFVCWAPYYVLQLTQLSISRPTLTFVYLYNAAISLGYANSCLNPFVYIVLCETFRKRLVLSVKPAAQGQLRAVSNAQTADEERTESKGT
Nature of the data set: Binding displacement of [125I]-[Phe13,Tyr19]-MCH at membranes expressing human MCH-R1. On the procedure: Stable cell lines were obligatory for all receptor programs. We cloned the human receptor and established the cell line as previously described. In brief, HEK293 (HEK) cells were grown in Dulbecco’s Modified Eagle medium (DMEM) supplemented with 10% fetal calf serum, 2 mM glutamine, 100 IU/mL penicillin and […] streptomycin. They were seeded at 5 × 10^6 cells in T75 cm^2 culture flasks. One day later, they were transfected with […] of the pcDNA3.1 (Invitrogen, Groningen, The Netherlands) containing the human MCH-R1 using lipofectamine (Life Technologies, Cergy Pontoise, France), as previously described. One day later, cells were trypsinized, resuspended in a complete DMEM medium containing […] of geneticin and seeded at different dilutions in 96-well plates which were kept for 2 to 3 weeks in a humidified CO2 incubator. At the end of the selection period, isolated clones were picked up, amplified, and further characterized by cyclic AMP experiments. For each cell line, one positive clone was subcloned before being used for all of the cyclic AMP, [^35S]-GTPγS and receptor binding experiments necessary to characterize them. The stable HEK293 cell line expressing the human MCH-R1 was HEK-hMCH-R1.
Membrane preparations were classically made as previously described. In brief, the HEK-hMCH-R cell line was grown to confluency, harvested in PBS buffer containing 2 mM EDTA and centrifuged at 10,000× g for 5 min (4°C). The resulting pellet was suspended in 20 mM Hepes buffer (pH 7.5), containing 5 mM EGTA and homogenized using a Kinematica polytron. The homogenate was then centrifuged (95,000× g, 30 min, 4 °C) and the resulting pellet was suspended in 50 mM HEPES buffer (pH 7.5), containing 10 mM MgCl2 and 2 mM EGTA. Aliquots of membrane preparations were stored at −80 °C until use. Binding has been described in numerous publications and the test was based on Mac Donald et al.’s description. […] Nonspecific binding is determined in the presence of 0.1 μM MCH. […] The filters are dried and then counted for radioactivity in a scintillation counter (Topcount, Packard) using a scintillation cocktail (Microscint 0, Packard). The results are expressed as percentage inhibition of the control radioligand specific binding. The standard reference compound is MCH, which was tested in each experiment at 8 concentrations to obtain a competition curve from which its IC50 is calculated. The high level of assay robustness and reproducibility of each control monitored over several decades (internal data base, Eurofins) and included in every assay ensure results’ reliability even when performed only twice. […]

Data set [4] has as its system high-fat diet-induced obese C57BL/6 mice. Nature of the data set: Diet-induced obesity model: food and water intake. It is filed as in vivo, mouse. Conditions: 5 and 10 mg/kg i.p. once daily, HFD mice. On the procedure:
as §1, §2

As for `CCCC[C@@H]1NC(=O)[C@@H](NC(=O)c2ccc(NC(=N)N)cc2)CCn2cc(nn2)C[C@@H](C(=O)N[C@@H](Cc2c[nH]c3ccccc23)C(=O)O)NC(=O)[C@@H]2CCCN2C(=O)[C@H](CCCNC(=N)N)NC(=O)C[C@H](C(C)C)NC(=O)[C@H](CCCNC(=N)N)NC(=O)[C@H](CC(C)C)NC1=O` [GPS18169] ({Benzoyl(4-guanidino)}-[Aha][Nle]LR[β3hV]RP[Pra]W-OH; triazole 1-8), the “overt toxicities and behavioral modifications” value in data set [1] is “Neither overt toxicities nor behavioral modifications were observed”. The “changes between treated and untreated animals” value in data set [2] is recorded as “no changes were recorded”. In data set [3], the “affinity at the MCH-R1 receptor (in words)” value is “low nanomolar range”. For the same molecule, in data set [4], the “food intake, treated vs vehicle” value is “no change” and the “water intake, treated vs vehicle” value is reported as “no change”.
